From patent US20030176436A1, “Novel heterocyclic compounds as selective bacterial DHFR inhibitors and their uses thereof” (priority 2001, published 2003)
≈ marks a conversion by molar mass, not a printed value.

How the values were obtained:
S. cerevisiae = assay: Microdilution susceptibility test (MIC), yeast as indicator of cytotoxicity; format: cell-based; conditions: Saccharomyces cerevisiae; Table 2; 90% inhibition of growth
Description: The following table of compounds of one aspect of the invention have potent antimicrobial activity against S. aureus bacteria and are anticipated to have physical-chemical properties similar to those of orally absorbed and bioavailable drugs and drug-like compounds. Antibacterial activity for a variety of bacterial species are shown (S. aureus, S. pneumoniae, E. faecalis, M. catarrhalis, and H. influenzae). The yeast cell (S. cerevisiae) in this panel of organisms is an indicator of potential cytotoxicity in mammalian cells.
(§1) Stock solutions of tested compounds were prepared in N,N-dimethylformamide (DMF) at a concentration of 5 mg/mL. Working solutions of the tested compounds were then prepared from the stock solutions, in Mueller-Hinton broth (MHB) with a starting concentration of 64 μg/mL.
(§2) Microplate wells were filled with two-fold dilutions of test compound (50 μl), starting with 64 μg/ml. Wells were then filled with 50 μl of bacterial inoculum (final volume: 100 μl/well). The plates were incubated at 37° C. for 18-24 hours (S. pneumoniae was grown in a CO2-enriched atmosphere).

human DHFR (hDHFR) = target: T1, human DHFR (hDHFR) (Homo sapiens, UniProt P00374); assay: DHFR enzyme assay, Ki determination, human DHFR; format: biochemical; conditions: Table 3
T1 construct: result in the amplification of a 186 amino acid hDHFR coding region; made in house; host or cells: E. coli Top10
T1 sequence (P00374 1-187): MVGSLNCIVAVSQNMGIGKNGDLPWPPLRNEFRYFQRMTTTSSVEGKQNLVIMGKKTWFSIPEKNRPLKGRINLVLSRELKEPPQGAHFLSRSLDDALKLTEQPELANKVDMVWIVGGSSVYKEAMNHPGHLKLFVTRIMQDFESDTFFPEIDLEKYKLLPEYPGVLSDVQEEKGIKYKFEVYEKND
Experimental: The human DHFR cDNA was cloned by PCR from the Human Universal Quick-clone™ cDNA purchased from Clontech.
The PCR fragment was digested with restriction enzymes NdeI and HindIII, and then ligated into a derivative of the pKK223-3 expression vector (Amersham Pharmacia). The final expression vector (pFW96.2) was transformed into E. coli Top10 F40 and hDHFR protein was induced by the addition of 1 mM IPTG followed by incubation at 37° C. for 4 hrs. Recombinant human DHFR was purified based on a previously published procedure (2).
(§3) Dihydrofolic acid and NADPH were purchased from Sigma. Enzyme assays were adapted for microtitre format from a previously published procedure (2, 3). All assays were performed in a 250 μl volume in 96-well microtitre plates. Typical assays consisted of 20 nM DHFR (human or E. coli), 100 μM NADPH, and 50 μM dihydrofolic acid in 100 mM HEPES pH 8, 10 mM KCl, and 10 mM MgCl2. The assay was monitored spectrophotometrically for the conversion of NADPH to NADP+, which results in a decrease in absorbance at 340 nm.
(§4) Five microliters of inhibitor compound in DMSO was added to 120 μl of enzyme solution (40 nM DHFR and 200 μM NADPH). The reaction was initiated by the addition of 125 μl of 100 μM dihydrofolic acid. The final concentrations in the assay were 20 nM DHFR, 100 μM NADPH, 50 μM dihydrofolic acid, and a range of 500 μM to 20 nM inhibitor compound. The final DMSO concentration was 2% of the total volume. Reactions were monitored as described above.
V=(Vmax[S])/(Km(1+I/Ki)+[S]), where S=dihydrofolate, Km=Michaelis constant for dihydrofolate, I=inhibitor concentration.

E. coli = assay: Microdilution antimicrobial susceptibility test (MIC); format: cell-based; conditions: Escherichia coli; Table 2; 90% inhibition of growth
Experimental: as §1
(§5) Bacterial inocula were prepared from overnight culture (i.e., one fresh colony from agar plate in 5 ml MHB; H. influenzae was grown in MHB with the addition of yeast extract, haematin, and NAD), centrifuged 2×5 min/3000 rpm (for S. pneumoniae and H. influenzae, 2×10 min/3000 rpm), and dispensed in 5 ml of fresh MHB each time, such that the bacterial suspension is diluted to obtain 100 colony forming units (cfu) in a microplate well (100 μl total volume).
as §2

M. catarrhalis = assay: as above; format: cell-based; conditions: Moraxella catarrhalis; Table 2; 90% inhibition of growth
Experimental: as §1, §5, §2

P. aeruginosa = assay: as above; format: cell-based; conditions: Pseudomonas aeruginosa; Table 2; 90% inhibition of growth
Experimental: as §1, §5, §2

S. aureus = assay: as above; format: cell-based; conditions: Staphylococcus aureus; Table 2; 90% inhibition of growth; read-out: MIC S. aureus
Experimental: as §1, §5, §2

S. pneumoniae = assay: as above; format: cell-based; conditions: Streptococcus pneumoniae; Table 2; 90% inhibition of growth
Experimental: as §1, §5, §2

E. faecalis = assay: as above; format: cell-based; conditions: Enterococcus faecalis; Table 2; 90% inhibition of growth
Experimental: as §1, §5, §2

H. influenzae = assay: as above; format: cell-based; conditions: Haemophilus influenzae; Table 2; 90% inhibition of growth; read-out: MIC H. influenzae
Experimental: as §1, §5, §2

bacterial DHFR (bDHFR) = target: T2, bacterial DHFR (bDHFR) (Escherichia coli, UniProt P0ABQ4); assay: DHFR enzyme assay, Ki determination, bacterial DHFR; format: biochemical, E. coli; conditions: Table 3; read-out: bDHFR Ki
T2 construct: gift of Eric Brown, McMaster University
Experimental: Human and Bacterial DHFR: E. coli DHFR was kindly provided by Eric Brown of MacMaster University.
as §3
as §4, with “The” for “Five microliters of inhibitor compound in DMSO was added to 120 μl of enzyme solution (40 nM DHFR and 200 μM NADPH). The”

| Structure (SMILES) | MIC (S. cerevisiae) | Ki (human DHFR (hDHFR)) | MIC (E. coli) | MIC (M. catarrhalis) | MIC (P. aeruginosa) | MIC (S. aureus) | MIC (S. pneumoniae) | MIC (E. faecalis) | MIC (H. influenzae) | Ki (bacterial DHFR (bDHFR)) |
| --- | --- | --- | --- | --- | --- | --- | --- | --- | --- | --- |
| CN(Cc1cnc2nc(N)nc(N)c2n1)c1ccc(C(=O)Nc2ccc(O)cc2)cc1 [Compound 1] | > 64 µg/mL | 500 to 999 nM | > 64 µg/mL | 2 to 8 µg/mL (≈ 4.8 to 19.2 µM) | > 64 µg/mL | 16 to 64 µg/mL (≈ 38.4 to 154 µM) | < 2 µg/mL | 16 to 64 µg/mL (≈ 38.4 to 154 µM) | 2 to 8 µg/mL (≈ 4.8 to 19.2 µM) | < 100 nM |
| CN(Cc1cnc2nc(N)nc(N)c2n1)c1ccc(C(=O)NCc2ccccn2)cc1 [Compound 3] | > 64 µg/mL | 1000 to 5000 nM | > 64 µg/mL | 2 to 8 µg/mL (≈ 4.81 to 19.3 µM) | > 64 µg/mL | 2 to 8 µg/mL (≈ 4.81 to 19.3 µM) | 2 to 8 µg/mL (≈ 4.81 to 19.3 µM) | 2 to 8 µg/mL (≈ 4.81 to 19.3 µM) | 2 to 8 µg/mL (≈ 4.81 to 19.3 µM) | < 100 nM |
| CN(Cc1cnc2nc(N)nc(N)c2n1)c1ccc(C(=O)NCc2cccnc2)cc1 [Compound 4] | > 64 µg/mL | 500 to 999 nM | > 64 µg/mL | 16 to 64 µg/mL (≈ 38.5 to 154 µM) | > 64 µg/mL | 16 to 64 µg/mL (≈ 38.5 to 154 µM) | 2 to 8 µg/mL (≈ 4.81 to 19.3 µM) | 2 to 8 µg/mL (≈ 4.81 to 19.3 µM) | 2 to 8 µg/mL (≈ 4.81 to 19.3 µM) | < 100 nM |
| CN(Cc1cnc2nc(N)nc(N)c2n1)c1ccc(C(=O)NCc2ccncc2)cc1 [Compound 5] | > 64 µg/mL | 500 to 999 nM | > 64 µg/mL | 2 to 8 µg/mL (≈ 4.81 to 19.3 µM) | > 64 µg/mL | 16 to 64 µg/mL (≈ 38.5 to 154 µM) | 2 to 8 µg/mL (≈ 4.81 to 19.3 µM) | 2 to 8 µg/mL (≈ 4.81 to 19.3 µM) | 2 to 8 µg/mL (≈ 4.81 to 19.3 µM) | < 100 nM |
| Nc1nc(N)c2nc(CNc3ccccc3)cnc2n1 [Compound 6] | > 64 µg/mL | > 5000 nM | > 64 µg/mL | 2 to 8 µg/mL (≈ 7.48 to 29.9 µM) | > 64 µg/mL | 2 to 8 µg/mL (≈ 7.48 to 29.9 µM) | 2 to 8 µg/mL (≈ 7.48 to 29.9 µM) | 2 to 8 µg/mL (≈ 7.48 to 29.9 µM) | 2 to 8 µg/mL (≈ 7.48 to 29.9 µM) | 1000 to 5000 nM |
| Nc1nc(N)c2nc(CNc3cccc([N+](=O)[O-])c3)cnc2n1 [Compound 7] | > 64 µg/mL | > 5000 nM | > 64 µg/mL | < 2 µg/mL | > 64 µg/mL | < 2 µg/mL | < 2 µg/mL | < 2 µg/mL | < 2 µg/mL | 100 to 499 nM |
| Nc1nc(N)c2nc(CNc3ccc4c(c3)OCO4)cnc2n1 [Compound 8] | > 64 µg/mL | > 5000 nM | > 64 µg/mL | 2 to 8 µg/mL (≈ 6.42 to 25.7 µM) | > 64 µg/mL | 2 to 8 µg/mL (≈ 6.42 to 25.7 µM) | 2 to 8 µg/mL (≈ 6.42 to 25.7 µM) | 2 to 8 µg/mL (≈ 6.42 to 25.7 µM) | 2 to 8 µg/mL (≈ 6.42 to 25.7 µM) | 1000 to 5000 nM |
| CN(Cc1cnc2nc(N)nc(N)c2n1)c1ccccc1 [Compound 9] | > 64 µg/mL | > 5000 nM | > 64 µg/mL | 2 to 8 µg/mL (≈ 7.11 to 28.4 µM) | > 64 µg/mL | 2 to 8 µg/mL (≈ 7.11 to 28.4 µM) | < 2 µg/mL | < 2 µg/mL | < 2 µg/mL | 100 to 499 nM |
